Reference: patent publication US7034054B2, “Methods for the prevention and treatment of cerebral ischemia using non-alpha tocopherols” (Galileo Pharmaceuticals, Inc., priority 2000, dated 2006)

Key:
[1] = system: cerebral ischemia induced in rats (MCAO); experiment: Animal cerebral infarct assay (Middle Cerebral Artery Occlusion, MCAO); format: in vivo, rat; settings: for reduce infarct size: rat; for total infarct volume relative to control animals / total ischemic damage relative to control animals: administered I.V. at the time of MCAO; for cerebral edema relative to control animals: administered at the time of MCAO; for cerebral edema relative to controls / total infarct volume relative to controls / total ischemic damage relative to controls: administered at the time of reperfusion
Source text: This assay is used to assess the efficacy of the test agents in protecting the brain against necrosis following cerebral ischemia induced in rats. Middle Cerebral Artery Occlusion (MCAO) is a widely used technique to induce transient focal cerebral ischemia in animal models. […] Furthermore, this model accurately represents the involvement of middle cerebral artery (MCA), the most affected vessel in human stroke, and also allows reperfusion as it happens in humans. MCAO by a two-hour occlusion is used to produce the maximum size of cortical infarction without increased mortality at twenty-four hours.
Male Wistar rats (Hadan, Ind.) weighing 300-350 g were allowed free access to water and commercial rodent diet under standard laboratory conditions. The room temperature was maintained at 20-23° C. and room illumination was on a 12/12-hour light/dark cycle. The rats were acclimatized to the laboratory environment 5 to 7 days prior to the study.
Before surgery, the animals were fasted overnight, but had free access to water. The-rats were anesthetized with 3.0% isoflurane (Aerrane, Front Dodge, Iowa) in […] and the animal's neck was shaved and sterilized before the operation. The animals were subjected to two hours MCAO using a modified intraluminal filament technique. A midline incision on the ventral part of the neck was made to expose external and internal carotid arteries. The right external and common carotid arteries were ligated by a suture (silk 5/0, Carlisle Laboratories, Farmers Branch, Tex.) and the right internal artery was temporarily ligated by a microvascular clip (Fine Science Tool Inc., Foster City, Calif.). A small incision was made in the common carotid artery and a nylon filament, its tip rounded by heating, prepared from a fishing line (Stren Fishing Lines, Wilmington, Del.) was inserted from the right common carotid artery. The filament was advanced into the internal carotid artery 18-20 mm from the point of bifurcation of internal and external arteries and a suture was tightly ligated around the filament. Two hours post occlusion, the animals were re-anesthetized to allow reperfusion for the remaining of the experiment by removal of the filament.
Anesthesia was maintained by inhalation of 3.0% isoflurane in […] throughout the entire procedure. The exterior site of the right femoral vein was shaved and sterilized prior to surgery. A 3 cm incision was made in the right groin region and the femoral vein was isolated. A small incision was made on the femoral vein temporarily ligated with a microvascular clip to introduce and advance a polyethylene (PE-50) catheter (Becton. Dickinson and Co., Sparks, Md.). The catheter was secured in place with suture (silk 5/0, Cailisle Laboratories, Farmers Branch, Tex.). The other end of the catheter was attached to a syringe filled with the heparinized saline for the bolus injection. Using a hemostat a pocket was made subcutaneously on the back of the animal so the PE catheter can be brought up to the exteriorization point at the nape of the neck for either a bolus injection or a continuous injection by an osmotic pump.
A standard rat gavage tube (Popper & Sons Inc, NY) was attached to a 3-cc hypodermic syringe. The animal was held by the shoulder in a vertical position. The feeding tube was placed into the mouth then advanced until it reached the stomach (the approximate insertion length of the tube was measured prior to the feeding). The content of the syringe was slowly delivered, and then the tube is withdrawn.
The animals are sacrificed by CO2 asphyxiation (dry ice) 24 hours post-MCAO. The skull is removed to expose the brain using a small bone cutter and starting from the base of the skull. The brain is removed quickly, rinsed in a chilled saline and placed on a rat brain tissue slicer (ASI instrument, Mich.). Seven 2-mm thick coronal slices are cut from each brain using razor blades. […]

[2] = Evans resorption sterility test for vitamin E; cited from earlier work
[3] = 6 mg/kg, administered IV at MCAO
[4] = 0.60 mg/kg, administered IV at MCAO
[5] = administered at reperfusion (FIG. 2)
[6] = administered at the time of MCAO (FIG. 1)
[7] = at the same concentration, MCAO assay

Structure (SMILES)	reduce infarct size [1, 3] [%]	reduce infarct size [1, 4] [%]	reduction of total infarct volume compared with alpha-tocopherol ([1]; MCAO assay)	activity relative to natural alpha-tocopherol [2]	total infarct volume relative to control animals [1]	total ischemic damage relative to control animals [1]	total infarct size [1, 5]	cerebral edema relative to control animals [1]	total infarct size [1, 6]	cerebral edema relative to controls [1]	total infarct volume relative to controls [1]	total ischemic damage relative to controls [1]	decreased neuronal damage ([1]; drug ranges 0.1-5 mg/kg, IV at MCAO)	reduce infarct size ([1]; 10.00 mg/kg by gavage, 3 hours pre-MCAO) [%]	reduction of tissue edema compared with alpha- or delta-tocopherol [1, 7]	reduction of total infarct volume compared with alpha- or delta-tocopherol [1, 7]
Cc1c(C)c2c(c(C)c1O)CC[C@@](C)(CCC[C@H](C)CCC[C@H](C)CCCC(C)C)O2 (relative stereo) [alpha-tocopherol, [2R-2R*(4R*,8R*)]-3,4-dihydro-2,5,7,8-tetramethyl-2-(4,8,12-trimethyltridecyl)-2H-1-benzopyran-6-ol, reference compound]	42	–	–	–	–	–	–	–	–	–	–	–	–	–	–	–
Cc1cc(O)cc2c1O[C@](C)(CCC[C@H](C)CCC[C@H](C)CCCC(C)C)CC2 (relative stereo) [delta-tocopherol, [2R-[2R*(4R*,8R*)]]-3,4-dihydro-2,8-dimethyl-2-(4,8,12-trimethyltridecyl)-2H-1-benzo-pyran-6-ol]	–	52	more effective	one hundredth	–	–	–	–	–	–	–	–	–	–	–	–
Cc1c(O)cc2c(c1C)OC(C)(CCC(=O)O)CC2 (stereo not drawn) [gamma-CEHC, 2,7,8-trimethyl-2-(β-carboxy-ethyl)-6-hydroxy chroman]	–	–	–	–	significantly reduced	significantly reduced	able to reduce total infarct size	reduced	able to reduce total infarct size	reduction	reduction	reduction	50-65%	–	–	–
Cc1c(O)cc2c(c1C)OC(C)(CCCC(C)CCCC(C)CCCC(C)C)CC2 (centres unmarked) [gamma-tocopherol, 3,4-dihydro-2,7,8-trimethyl-2-(4,8,12-trimethyltridecyl)-2H-1-benzyopyran-6-ol]	82	81	–	–	significantly reduced	significantly reduced	able to reduce total infarct size	significantly reduced	able to reduce total infarct size	reduction	reduction	reduction	–	77	more effective	more effective
